Data from patent US11834414B2, “1-methyl-4-[(4-phenylphenyl)sulfonylmethyl]cyclohexyanol and 1-methyl-4-[[4-(2-pyridyl)phenyl]sulfonylmethyl]cyclohexanol compounds and their therapeutic use” (Modern Biosciences Limited, priority 2018, dated 2023).
Entries after “also recorded” stand apart in the source; their conditions may differ.

Experiment: Metabolite identification in rats
Assay type: in vivo, Han Wistar rats
Conditions: rat, 1 mg/kg intravenous, up to 24 hours
Experimental: The formation of metabolites in rats was assessed to determine the propensity of the compounds to form a biaryl metabolite.
The corresponding sulfonamide compounds (for example, reference compound HMC-C-01-A) give rise to a sulphonamide metabolite which is persistent and has a long half-life. In addition, the biaryl sulphonamide metabolite acts as an inducer of metabolism in rats, which may complicate the assessment of toxicity in rodents. Therefore, the lower the propensity to form a biaryl sulphonamide metabolite, the greater the potential suitability of the compound for development for human use.
Plasma samples from Han Wistar rats, aged 8-12 weeks, were collected from animals dosed with test compound. Test compounds at a dose of 1 mg/kg were administered intravenously as a solution in 5% NMP, 5% Solutol HS, and 90% normal saline. Animals were given free access to food throughout the study. Blood samples were taken under light isoflurane anaesthesia at 12 time points following an intravenous dose (0.033, 0.1, 0.167, 0.25, 0.5, 1, 2, 4, 6, 8, 12, and 24 hours). The blood samples were collected from a set of three rats at each time point in labelled micro centrifuge tube containing K2EDTA as anticoagulant. Plasma samples were separated by centrifugation of whole blood.
All samples were processed for analysis by protein precipitation using acetonitrile and analysed with a fit-for-purpose LC-MS/MS method.
At the completion of the study, the results were expressed as detection of the metabolite and time course of formation.

For `C[C@]1(O)CC[C@H](NS(=O)(=O)c2ccc(-c3ccc(Cl)cc3C#N)cc2)CC1` [HMC-C-01-A, reference compound], the “formation of biaryl sulphonamide metabolite (MET-001) in plasma” value was “formed in large quantities and accumulated over time; also recorded: in large quantities (which accumulated over time)”.
